Test results from PubChem BioAssay (NCI).
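A five-concentration, 48-hour dose response in 96-well plates underlies each endpoint, interpolated linearly between surrounding concentrations. GI50 = concentration required for 50% inhibition of growth. TGI: total growth inhibition.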 Calls of active or inactive are those of the source. Cut-off read from the data, not from the text of the source: active = GI50 below about 0.43 µM; inactive = the rest.

Tests used:
Assay in all cases: DTP human tumour cell line panel, 48 h
SN12C renal = tested on: SN12C renal
OVCAR-3 ovarian = tested on: OVCAR-3 ovarian
SK-OV-3 ovarian = tested on: SK-OV-3 ovarian
HT29 colon = tested on: HT29 colon
786-0 renal = tested on: 786-0 renal
SNB-19 CNS = tested on: SNB-19 CNS
K-562 leukemia = tested on: K-562 leukemia
NCI-H226 lung = tested on: NCI-H226 lung
MDA-MB-435 = tested on: MDA-MB-435
SK-MEL-28 melanoma = tested on: SK-MEL-28 melanoma
SF-268 CNS = tested on: SF-268 CNS
SW-620 colon = tested on: SW-620 colon
CAKI-1 renal = tested on: CAKI-1 renal
NCI/ADR-RES ovarian = tested on: NCI/ADR-RES ovarian
UACC-257 melanoma = tested on: UACC-257 melanoma
ACHN renal = tested on: ACHN renal
LOX IMVI melanoma = tested on: LOX IMVI melanoma
SNB-75 CNS = tested on: SNB-75 CNS
RXF 393 renal = tested on: RXF 393 renal
HL-60(TB) leukemia = tested on: HL-60(TB) leukemia
OVCAR-4 ovarian = tested on: OVCAR-4 ovarian
MDA-MB-231 breast = tested on: MDA-MB-231 breast
OVCAR-5 ovarian = tested on: OVCAR-5 ovarian
SF-539 CNS = tested on: SF-539 CNS
T-47D breast = tested on: T-47D breast
HOP-92 NSCLC = tested on: HOP-92 NSCLC
UACC-62 melanoma = tested on: UACC-62 melanoma
SF-295 CNS = tested on: SF-295 CNS
HCT-116 colon = tested on: HCT-116 colon
PC-3 prostate = tested on: PC-3 prostate
HS 578T breast = tested on: HS 578T breast
MCF7 breast = tested on: MCF7 breast
A549 NSCLC = tested on: A549 NSCLC
CCRF-CEM leukemia = tested on: CCRF-CEM leukemia
EKVX NSCLC = tested on: EKVX NSCLC
U251 CNS = tested on: U251 CNS
SK-MEL-2 melanoma = tested on: SK-MEL-2 melanoma
M14 melanoma = tested on: M14 melanoma
DU-145 prostate = tested on: DU-145 prostate
HOP-62 NSCLC = tested on: HOP-62 NSCLC
A498 renal = tested on: A498 renal
COLO 205 colon = tested on: COLO 205 colon
NCI-H460 lung = tested on: NCI-H460 lung
NCI-H23 lung = tested on: NCI-H23 lung
KM12 colon = tested on: KM12 colon
OVCAR-8 ovarian = tested on: OVCAR-8 ovarian
HCC-2998 colon = tested on: HCC-2998 colon
IGROV1 ovarian = tested on: IGROV1 ovarian
MALME-3M melanoma = tested on: MALME-3M melanoma
SK-MEL-5 melanoma = tested on: SK-MEL-5 melanoma
NCI-H522 lung = tested on: NCI-H522 lung
HCT-15 colon = tested on: HCT-15 colon
UO-31 renal = tested on: UO-31 renal
MDA-N = tested on: MDA-N
TK-10 renal = tested on: TK-10 renal
MOLT-4 leukemia = tested on: MOLT-4 leukemia
RPMI-8226 leukemia = tested on: RPMI-8226 leukemia

Cc1ccc(/C=C2\CN(C)CC3=C2NC(=S)NC3c2ccc(C)cc2)cc1 (stereo unspecified)
82.8 µM: TGI (HOP-92 NSCLC)
67.1 µM: TGI (OVCAR-4 ovarian)
46 µM: TGI (COLO 205 colon)
39 µM: TGI (KM12 colon)
60.1 µM: TGI (HCT-116 colon)
78.9 µM: TGI (HCC-2998 colon)
28.1 µM: TGI (MDA-MB-435)
36.7 µM: TGI (MDA-N)
56.9 µM: TGI (K-562 leukemia)
> 100 µM: TGI (SN12C renal) | TGI (SK-OV-3 ovarian) | TGI (SNB-19 CNS) | TGI (NCI-H226 lung) | TGI (SK-MEL-28 melanoma) | TGI (SF-268 CNS) | TGI (SW-620 colon) | TGI (CAKI-1 renal) | TGI (ACHN renal) | TGI (LOX IMVI melanoma) | TGI (RXF 393 renal) | TGI (MDA-MB-231 breast) | TGI (OVCAR-5 ovarian) | TGI (SF-539 CNS) | TGI (T-47D breast) | TGI (UACC-62 melanoma) | TGI (SF-295 CNS) | TGI (PC-3 prostate) | TGI (HS 578T breast) | TGI (A549 NSCLC) | TGI (EKVX NSCLC) | TGI (U251 CNS) | TGI (SK-MEL-2 melanoma) | TGI (M14 melanoma) | TGI (DU-145 prostate) | TGI (HOP-62 NSCLC) | TGI (A498 renal) | TGI (NCI-H460 lung) | TGI (NCI-H23 lung) | TGI (OVCAR-8 ovarian) | TGI (IGROV1 ovarian) | TGI (MALME-3M melanoma) | TGI (SK-MEL-5 melanoma) | TGI (NCI-H522 lung) | TGI (HCT-15 colon) | TGI (UO-31 renal)
61.4 µM: TGI (HL-60(TB) leukemia)
77.8 µM: TGI (786-0 renal)
80.4 µM: TGI (HT29 colon)
62.5 µM: TGI (OVCAR-3 ovarian)
68 µM: TGI (NCI/ADR-RES ovarian) | TGI (SNB-75 CNS)
72.3 µM: TGI (MCF7 breast)
82.4 µM: TGI (CCRF-CEM leukemia)
62 µM: TGI (UACC-257 melanoma)

CC(C)(NO)/C(=N\O)c1ccco1
> 100 µM: TGI (SN12C renal) | TGI (OVCAR-3 ovarian) | TGI (SK-OV-3 ovarian) | TGI (HT29 colon) | TGI (786-0 renal) | TGI (SNB-19 CNS) | TGI (NCI-H226 lung) | TGI (MDA-MB-435) | TGI (SK-MEL-28 melanoma) | TGI (SF-268 CNS) | TGI (SW-620 colon) | TGI (CAKI-1 renal) | TGI (NCI/ADR-RES ovarian) | TGI (UACC-257 melanoma) | TGI (ACHN renal) | TGI (LOX IMVI melanoma) | TGI (RXF 393 renal) | TGI (OVCAR-4 ovarian) | TGI (MDA-MB-231 breast) | TGI (TK-10 renal) | TGI (OVCAR-5 ovarian) | TGI (SF-539 CNS) | TGI (T-47D breast) | TGI (HOP-92 NSCLC) | TGI (UACC-62 melanoma) | TGI (SF-295 CNS) | TGI (HCT-116 colon) | TGI (PC-3 prostate) | TGI (HS 578T breast) | TGI (MCF7 breast) | TGI (A549 NSCLC) | TGI (EKVX NSCLC) | TGI (U251 CNS) | TGI (SK-MEL-2 melanoma) | TGI (M14 melanoma) | TGI (DU-145 prostate) | TGI (HOP-62 NSCLC) | TGI (COLO 205 colon) | TGI (NCI-H460 lung) | TGI (NCI-H23 lung) | TGI (KM12 colon) | TGI (OVCAR-8 ovarian) | TGI (HCC-2998 colon) | TGI (IGROV1 ovarian) | TGI (MALME-3M melanoma) | TGI (SK-MEL-5 melanoma) | TGI (HCT-15 colon) | TGI (UO-31 renal) | TGI (RPMI-8226 leukemia) | TGI (MDA-N)
40.8 µM: TGI (MOLT-4 leukemia)

O=C(O)CN1CCN(CC(=O)O)CCN(CC(=O)O)CC1
> 70.8 µM: TGI (NCI-H522 lung)
> 21.9 µM: TGI (K-562 leukemia)
> 75.8 µM: TGI (A498 renal)
inactive: outcome (SN12C renal) | outcome (SK-OV-3 ovarian) | GI50 (HT29 colon) 4400 µM | outcome (786-0 renal) | outcome (SNB-19 CNS) | outcome (NCI-H226 lung) | outcome (MDA-MB-435) | outcome (SK-MEL-28 melanoma) | outcome (SF-268 CNS) | outcome (SW-620 colon) | outcome (NCI/ADR-RES ovarian) | GI50 (UACC-257 melanoma) 71500 µM | outcome (ACHN renal) | outcome (LOX IMVI melanoma) | outcome (SNB-75 CNS) | GI50 (RXF 393 renal) 9940 µM | outcome (OVCAR-4 ovarian) | outcome (MDA-MB-231 breast) | GI50 (TK-10 renal) 33100 µM | outcome (OVCAR-5 ovarian) | outcome (SF-539 CNS) | outcome (T-47D breast) | outcome (HOP-92 NSCLC) | GI50 (UACC-62 melanoma) 8700 µM | outcome (SF-295 CNS) | GI50 (HCT-116 colon) 6750 µM | GI50 (PC-3 prostate) 9040 µM | outcome (HS 578T breast) | GI50 (MCF7 breast) 6360 µM | GI50 (A549 NSCLC) 3550 µM | outcome (CCRF-CEM leukemia) | outcome (EKVX NSCLC) | outcome (U251 CNS) | GI50 (SK-MEL-2 melanoma) 16700 µM | GI50 (M14 melanoma) 10500 µM | outcome (DU-145 prostate) | outcome (HOP-62 NSCLC) | outcome (A498 renal) | GI50 (COLO 205 colon) 4770 µM | outcome (MOLT-4 leukemia) | GI50 (NCI-H460 lung) 4560 µM | GI50 (NCI-H23 lung) 76100 µM | GI50 (KM12 colon) 5450 µM | GI50 (OVCAR-8 ovarian) 22300 µM | GI50 (IGROV1 ovarian) 7100 µM | outcome (MALME-3M melanoma) | GI50 (SK-MEL-5 melanoma) 6790 µM | GI50 (NCI-H522 lung) 8060 µM | GI50 (HCT-15 colon) 9440 µM | outcome (UO-31 renal) | GI50 (MDA-N) 18500 µM
9.69 µM: TGI (COLO 205 colon)
> 30.9 µM: TGI (NCI/ADR-RES ovarian)
> 59 µM: TGI (CCRF-CEM leukemia)
> 23.2 µM: TGI (SK-MEL-5 melanoma)
> 24.1 µM: TGI (OVCAR-8 ovarian)
> 25.4 µM: TGI (A549 NSCLC)
4.74 µM: TGI (HL-60(TB) leukemia)
